From US8895004B2 (priority 2007, dated 2014)
Like-named read-outs stand apart in the source and are kept apart here.

Experiments:
hippocampal slice = assay: Spontaneous synaptic currents in acute hippocampal slice, CA1 pyramidal cells; format: cell-based; conditions: mouse slice
Experimental: 400 μm thick slices were prepared from freshly dissected hippocampi of the mouse using a method known per se (Dingledine R. Brain Slices. New York: Plenum Press, 1983).

[1] = tested on: cultured hippocampal neurons; assay: sPSC frequency at 1 mM and 4 mM extracellular Ca2+ after Aβ(1-42) globulomer; format: cell-based
Experimental: Spontaneous synaptic activity was measured in cultured hippocampal neurons using whole-cell voltage clamp techniques (Vhold=−70 mV). Under the ionic conditions used (ECl˜−10 mV) all synaptic events appeared as inward currents.
Currents recorded prior to the addition of the globulomer served as control describing basal synaptic transmission. Currents recorded in the interval immediately after application were analysed with respect to the control data. Afterwards, extracellular Ca^2+ was elevated from 1 mM to 4 mM (leaving the concentration of globulomer unchanged). Currents in the following 5 min recording interval were again analysed with respect to control data.

[2] = tested on: cultured hippocampal neurons
[3] = tested on: hippocampal slice cultures; assay: Evoked synaptic transmission in hippocampal slice cultures after overnight incubation; conditions: globulomer approx. 1 μM monomer
[4] = tested on: cultured hippocampal neurons; format: cell-based, rat
GABAA receptors = format: cell-based, rat
[5] = target: T1, P/Q-type calcium channels (Rattus norvegicus, UniProt P54282); format: cell-based
T1 construct: Typical P/Q channel-mediated currents could be reliably elicited in somatic whole-cell recordings under our culture conditions; endogenous in cells; host or cells: cultured hippocampal neurons
T1 sequence (Q8CFG6 19-1157): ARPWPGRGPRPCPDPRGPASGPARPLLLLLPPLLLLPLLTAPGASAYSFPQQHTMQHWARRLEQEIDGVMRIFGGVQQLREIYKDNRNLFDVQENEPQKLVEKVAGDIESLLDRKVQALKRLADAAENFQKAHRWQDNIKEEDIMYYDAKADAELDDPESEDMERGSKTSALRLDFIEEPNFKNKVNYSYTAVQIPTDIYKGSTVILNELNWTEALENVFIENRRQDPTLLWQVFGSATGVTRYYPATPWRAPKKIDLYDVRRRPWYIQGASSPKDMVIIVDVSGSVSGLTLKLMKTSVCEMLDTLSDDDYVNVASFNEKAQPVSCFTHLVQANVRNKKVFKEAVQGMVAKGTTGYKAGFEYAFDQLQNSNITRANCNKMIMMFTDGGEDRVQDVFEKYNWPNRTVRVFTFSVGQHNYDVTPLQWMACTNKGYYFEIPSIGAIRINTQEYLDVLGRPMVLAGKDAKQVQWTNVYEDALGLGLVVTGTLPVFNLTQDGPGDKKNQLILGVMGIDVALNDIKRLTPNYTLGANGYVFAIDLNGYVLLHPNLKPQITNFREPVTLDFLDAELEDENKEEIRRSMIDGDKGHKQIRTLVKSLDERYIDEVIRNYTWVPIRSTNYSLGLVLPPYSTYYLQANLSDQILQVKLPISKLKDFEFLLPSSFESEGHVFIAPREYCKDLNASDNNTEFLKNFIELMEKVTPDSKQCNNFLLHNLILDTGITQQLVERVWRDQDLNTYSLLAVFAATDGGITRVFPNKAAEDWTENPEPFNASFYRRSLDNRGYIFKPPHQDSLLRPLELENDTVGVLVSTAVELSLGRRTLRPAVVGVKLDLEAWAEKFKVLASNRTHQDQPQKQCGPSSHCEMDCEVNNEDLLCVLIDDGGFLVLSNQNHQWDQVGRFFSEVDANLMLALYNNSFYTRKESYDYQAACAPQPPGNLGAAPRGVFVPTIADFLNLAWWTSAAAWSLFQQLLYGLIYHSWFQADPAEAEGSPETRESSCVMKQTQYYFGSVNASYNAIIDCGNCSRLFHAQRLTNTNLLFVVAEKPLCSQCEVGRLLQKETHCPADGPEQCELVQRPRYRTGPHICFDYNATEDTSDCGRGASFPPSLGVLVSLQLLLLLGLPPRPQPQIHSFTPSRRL
T1 sequence (P54282 whole entry): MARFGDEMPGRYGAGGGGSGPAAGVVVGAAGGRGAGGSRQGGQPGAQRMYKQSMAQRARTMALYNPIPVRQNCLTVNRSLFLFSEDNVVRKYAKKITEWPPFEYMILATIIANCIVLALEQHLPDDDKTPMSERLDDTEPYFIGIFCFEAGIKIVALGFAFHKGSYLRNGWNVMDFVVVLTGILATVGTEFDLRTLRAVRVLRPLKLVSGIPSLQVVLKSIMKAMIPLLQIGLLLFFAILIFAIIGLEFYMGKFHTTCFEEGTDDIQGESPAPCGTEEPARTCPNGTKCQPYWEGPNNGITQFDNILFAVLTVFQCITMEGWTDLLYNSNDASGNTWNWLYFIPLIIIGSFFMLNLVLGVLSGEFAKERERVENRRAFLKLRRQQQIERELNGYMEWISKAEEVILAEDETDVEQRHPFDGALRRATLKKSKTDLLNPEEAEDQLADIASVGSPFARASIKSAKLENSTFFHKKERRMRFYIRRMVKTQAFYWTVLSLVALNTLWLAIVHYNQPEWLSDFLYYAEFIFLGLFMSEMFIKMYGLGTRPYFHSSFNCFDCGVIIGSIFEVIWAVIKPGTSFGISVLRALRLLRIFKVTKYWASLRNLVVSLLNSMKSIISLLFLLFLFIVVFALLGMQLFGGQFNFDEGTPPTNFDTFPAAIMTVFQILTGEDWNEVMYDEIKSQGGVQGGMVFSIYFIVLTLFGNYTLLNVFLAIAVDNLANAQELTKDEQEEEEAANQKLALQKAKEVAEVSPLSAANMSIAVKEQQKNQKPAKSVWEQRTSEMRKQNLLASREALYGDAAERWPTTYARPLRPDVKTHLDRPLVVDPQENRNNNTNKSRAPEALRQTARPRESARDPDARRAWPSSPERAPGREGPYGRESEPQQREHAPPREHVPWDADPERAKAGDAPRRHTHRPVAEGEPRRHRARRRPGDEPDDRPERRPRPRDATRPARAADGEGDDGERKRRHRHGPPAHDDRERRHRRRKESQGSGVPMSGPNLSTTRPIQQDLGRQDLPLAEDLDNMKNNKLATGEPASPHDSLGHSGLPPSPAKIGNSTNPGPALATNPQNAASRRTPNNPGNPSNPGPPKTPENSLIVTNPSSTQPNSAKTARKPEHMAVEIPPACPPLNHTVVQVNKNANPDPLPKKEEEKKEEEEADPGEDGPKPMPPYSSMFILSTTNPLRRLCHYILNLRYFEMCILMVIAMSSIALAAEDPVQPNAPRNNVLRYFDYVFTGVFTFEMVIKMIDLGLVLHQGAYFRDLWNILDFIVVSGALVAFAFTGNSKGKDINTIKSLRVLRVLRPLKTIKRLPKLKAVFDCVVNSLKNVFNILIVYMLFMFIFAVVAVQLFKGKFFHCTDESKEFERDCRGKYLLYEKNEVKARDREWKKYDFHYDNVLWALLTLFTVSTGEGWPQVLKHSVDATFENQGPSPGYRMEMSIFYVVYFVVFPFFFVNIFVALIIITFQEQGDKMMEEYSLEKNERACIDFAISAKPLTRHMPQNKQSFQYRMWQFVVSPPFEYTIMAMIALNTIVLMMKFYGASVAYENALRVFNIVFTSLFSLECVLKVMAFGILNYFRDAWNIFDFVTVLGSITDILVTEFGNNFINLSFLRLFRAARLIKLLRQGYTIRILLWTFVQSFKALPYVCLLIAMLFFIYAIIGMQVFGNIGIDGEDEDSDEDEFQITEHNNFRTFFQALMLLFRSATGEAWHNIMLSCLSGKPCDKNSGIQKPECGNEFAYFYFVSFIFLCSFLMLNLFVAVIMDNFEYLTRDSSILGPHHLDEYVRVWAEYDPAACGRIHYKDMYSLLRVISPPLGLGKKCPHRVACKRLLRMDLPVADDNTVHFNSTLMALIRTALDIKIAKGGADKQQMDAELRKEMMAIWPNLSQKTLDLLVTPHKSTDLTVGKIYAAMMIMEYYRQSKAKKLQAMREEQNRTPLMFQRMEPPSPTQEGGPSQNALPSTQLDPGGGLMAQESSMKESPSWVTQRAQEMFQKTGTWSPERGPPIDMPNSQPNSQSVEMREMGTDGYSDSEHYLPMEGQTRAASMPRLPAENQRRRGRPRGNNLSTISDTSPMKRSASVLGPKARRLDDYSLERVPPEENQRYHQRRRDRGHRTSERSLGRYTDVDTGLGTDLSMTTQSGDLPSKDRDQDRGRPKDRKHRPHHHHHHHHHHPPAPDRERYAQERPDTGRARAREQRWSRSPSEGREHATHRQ
T1 sequence (P54283 whole entry, further chain): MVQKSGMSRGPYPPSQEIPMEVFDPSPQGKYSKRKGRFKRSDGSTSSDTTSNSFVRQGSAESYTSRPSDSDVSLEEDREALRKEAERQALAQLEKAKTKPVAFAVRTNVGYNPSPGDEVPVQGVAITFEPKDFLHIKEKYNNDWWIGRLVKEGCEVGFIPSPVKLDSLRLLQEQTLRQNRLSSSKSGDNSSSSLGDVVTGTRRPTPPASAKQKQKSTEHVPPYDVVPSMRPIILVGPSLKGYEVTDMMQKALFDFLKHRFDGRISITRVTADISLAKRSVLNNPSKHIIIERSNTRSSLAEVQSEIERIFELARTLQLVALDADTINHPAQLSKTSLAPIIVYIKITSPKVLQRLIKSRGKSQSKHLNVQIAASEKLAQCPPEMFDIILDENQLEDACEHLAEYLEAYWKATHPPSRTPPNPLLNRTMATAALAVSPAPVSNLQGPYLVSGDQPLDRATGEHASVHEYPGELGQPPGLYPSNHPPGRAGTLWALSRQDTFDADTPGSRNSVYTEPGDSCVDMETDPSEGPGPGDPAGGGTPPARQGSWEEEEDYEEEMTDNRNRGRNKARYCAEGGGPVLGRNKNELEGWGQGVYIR

L-type calcium currents = format: cell-based, rat
[6] = tested on: cells predominantly expressing presynaptic N-type calcium channels; format: cell-based, rat
[7] = globulomer, after elevation of Ca2+ to 4 mM

## Aβ(1-42) globulomer: soluble, globular, non-covalent association of Aβ(1-42) peptides, apparent molecular weight 38/48 kDa, obtained as in Example 6b of WO2004/067561
Hippocampal slice
  inhibition mechanism in hippocampal slice: also valid in situ
[1]; 1 mM Ca2+, globulomer
  median amplitude of sPSCs: 97±5%
[1]; 1 mM Ca2+, globulomer approx. 1 μM monomer
  sPSC frequency: 63±7 % of control
[1]; [7]
  median amplitude of sPSCs: 98±6%
  sPSC frequency: 77±13 % of control
[2]
  amplitude of mEPSCs: 96±3 % of control
  amplitude of spontaneous EPSCs: 79±4 % of control
  amplitude of spontaneous EPSCs during washout: 96±6%
  amplitude of spontaneous IPSCs after withdrawal: 94±2%
  amplitude of synaptic currents after pre-incubation with ω-Agatoxin IVA: 102±7
  frequency of mIPSCs: 52±10 % of control
  frequency of mIPSCs after washout: 68±12 % of control
  frequency of mPSCs: 56±9 % of control
  frequency of mPSCs after washout: 77±7.6 % of control
  frequency of miniature EPSCs: 57±9 % of control
  frequency of miniature EPSCs after wash-out: 54±8%
  frequency of sPSCs after washout: 61±16%
  frequency of spontaneous EPSCs: 14±4 % of control
  frequency of spontaneous EPSCs during washout: 52±19 % of control
  frequency of spontaneously occurring IPSCs: 64±5 % of control
  frequency of synaptic currents after pre-incubation with ω-Agatoxin IVA: 108±15%
  mIPSC amplitude: 81±6 % of control
  mIPSC amplitude after washout: 85±6%
  median amplitude of mPSCs: 30.2±5.2 pA
  median amplitude of spontaneous IPSCs: 82±2 % of control
[3]
  evoked synaptic transmission: strongly suppresses synaptic transmission
[4]
  amplitude of the AP (baseline to peak): 110.9±16.7 mV
  half-width time: 4.0 ± 2.9 ms
  input resistance: 131.6±13.7 MΩ
  maximal rate of repolarization: 47.4±19.3 V/s
  maximal rate of rise: 84.2±50.0 V/s
  threshold for firing: −24.2±9.8 mV
GABAA receptors
  GABA-induced inward currents: unaltered
[5]
  amplitude of P/Q-type currents: 62±7 % of control
  maximal conductance (gmax): 27.2±3.2 nS
  reversibility of P/Q-type current reduction: partially reversible
  slope Vc of steady-state activation: −10.8±0.5 mV
  slope Vc of steady-state inactivation: −12.6±1.1 mV
  steady-state activation Vh: −17.3±1.3 mV
  voltage at half-maximal inactivation: 32.4±1.2 mV
L-type calcium currents
  L-type calcium current amplitude: 573.0±225.6 pA
[6]
  spontaneous synaptic activity (frequency and amplitude) in N-dominated cells: does not impair spontaneous synaptic activity

## monomeric Aβ(1-42): synthetic monomeric Aβ(1-42) peptide (H-1368; Bachem) dissolved in 0.1% NaOH; likely a mixture of aggregation states
[2]; 1 μM monomer, TTX
  frequency of mPSCs: 87±3 % of control
  median amplitude of mPSCs: 33.7±3.0 pA

## ω-agatoxin IVA (KKKCIAKDYGRCKWGGTPCCRGRGCICSIMGTNCECKPRLIMEGLGLA)
[6]
  spontaneous synaptic activity (frequency and amplitude) in N-dominated cells: does not impair spontaneous synaptic activity
